In patent publication US5260340A, “Prevention and amelioration of acetaminophen toxicity with beta-carotene” (priority 1992, dated 1993):
Like-named read-outs stand apart in the source and are kept apart here.

Columns and labels:
[1] = cited from earlier work
mice = assay: Feeding of mice following IP injection of a lethal dose of acetaminophen; type: in vivo
liver = conditions: cited from earlier work
[2] = cited from earlier work; remark: listed apart in the source
acetaminophen toxicity [3] = assay: Prevention of acetaminophen toxicity, simultaneous administration (Example 6): survival and body weight; type: in vivo, 129ReJ mice; conditions: beta-carotene diet
Description: (§1) The total amount of beta-carotene consumed by mice in each experiment was computed using the estimates that a 25 gram mouse will consume […] of food and 25 ml/day of water, under normal conditions.
Ten 129ReJ mice (The Jackson Laboratory) were starved for twelve hours during which time they lost 4% of their original weight. The mice were then given drinking bottles containing a 0.1% aqueous solution of acetaminophen (Fisher Scientific). The mice were given a Modified HLR 341 diet with 10 percent of 10% beta-carotene beadlets, 10% safflower oil, 6% lard, 1.6 mg/kg of vitamin K, and 4000 IU/kg of vitamin A (Dyets, Inc.). The food regimen was continued throughout the remainder of the experiment.
At the sixtieth hour, all of the mice received an IP injection of 300 mg/kg of acetaminophen, and the drinking bottles were filled with pure water.

[4] = system: Kupffer cells of the liver; conditions: in vivo; cited from earlier work
cytochrome P450 = conditions: fourteen days of dietary beta-carotene supplement; mouse liver homogenates; cited from earlier work
toxicity due to aspirin = conditions: in vivo; cited from earlier work
acetaminophen toxicity [5] = assay: Antidotal treatment of acetaminophen toxicity (Example 8): survival and weight regain; type: in vivo, DBA/2J mice
Description: as §1
(§2) The design of this experiment was predicated on the clinical time sequence involved in, or associated with, acetaminophen overdose and toxicity, and the biological response of mice to lethal injections of this drug. When a human ingests a toxic, potentially lethal dose of acetaminophen, few if any, clinical signs manifest during the first forty-eight hours. The patient remains alert and can take food voluntarily or by a nasal gastric tube. […] Because the time course of human toxicity implies that a patient could orally ingest an antidote such as beta-carotene within the forty-eight hour period immediately following an overdose, it was proposed that a comparative animal model would be feeding subjects with a beta-carotene diet for forty-eight hours prior to the administration of a known lethal dose of acetaminophen.
Twelve DBA/2J mice (The Jackson Laboratory) were weighed and starved for seventy-two hours. The mean weight loss during this time was 27%. The mice received a Modified HLR 341 diet with 10 percent of 10% beta-carotene beadlets, 10% safflower oil, 6% lard, 1.6 mg/kg of vitamin K, and […] of vitamin A (Dyets, Inc.). The mice regained 86% of their original weight. Each mouse ingested about 0.1 gram of beta-carotene by the forty-eighth hour.
After forty-eight hours on the experimental diet, the mice received an IP injection of 800 mg/kg of acetaminophen (Fisher Scientific) dissolved in 20% Tween 80 (Sigma Chemical Co.) in saline.
The mice were reweighed, and a second injection of 600 mg/kg of acetaminophen dissolved in 20% Tween 80 in saline was given to each mouse. By seventy hours after the first injection, 92% of the mice were alive.

acetaminophen toxicity [6] = assay: Prevention of acetaminophen toxicity, pre-administration of beta-carotene in the diet: survival after IP acetaminophen 800 mg/kg; type: in vivo, 129/ReJ mice; conditions: for mice alive seventy-two hours after injection: 800 mg/kg acetaminophen IP; for Survival 72 Hours After Ingestion (%) / Survival 72 Hours After Ingestion, Survivors/Sample: acetaminophen 800 mg/kg IP
Description: as §1
Nine 129/ReJ mice, (The Jackson Laboratory-Bar Harbor, Me.) were pre-fed a diet of Modified HLR 341 with 10 percent of 10% beta-carotene beadlets, 1.6 mg/kg of vitamin K, and 4,000 IU/kg of vitamin A (Dyets, Inc.--Bethlehem, Pa.) for a period of five months. Each mouse ingested about 7.5 grams of beta-carotene.
Each mouse then received an intraperitoneal (IP) injection of 800 mg/kg of acetaminophen (Fisher Scientific-Pittsburgh, Pa.) dissolved in 20% Tween 80 (Sigma Chemical Company -- St. Louis, Mo.) in saline. […]

acetaminophen toxicity [7] = assay: Prevention of acetaminophen toxicity, simultaneous administration (Example 5): survival; type: in vivo, DBA/2J mice; conditions: about 20 mg total beta-carotene per mouse by hour 24; 1% acetaminophen in water, 500 mg/kg IP at hours 24 and 30
Description: as §1
Four DBA/2J mice (The Jackson Laboratory) were weighed. Food was removed, and the mice were given drinking bottles containing a one percent aqueous solution of acetaminophen (Fisher Scientific) and 60 mg of beta-carotene per 100 ml ("Twinlab"--Twin Laboratories--Ronkonkoma, N.Y.). After twenty-two hours, the mice were given a Modified HLR 341 diet having 10 percent of 10% beta-carotene beadlets, 10% safflower oil food pellets, 6% lard, 1.6 mg/kg of vitamin K, and 4000 IU/kg of vitamin A (Dyets, Inc.). Each mouse ingested about 20 mg total beta-carotene from the water and food by the twenty-fourth hour.
At the twenty-fourth and thirtieth hours, all of the mice received an IP injection of 500 mg/kg of acetaminophen dissolved in 20% Tween 80 (Sigma Chemical Co.) in saline. At the forty-eighth hour, all of the mice were weighed, and the drinking bottles were filled with pure water.

[8] = mammals; cited from earlier work
[9] = human; not yet determined; cited from earlier work
[10] = system: aflatoxin-induced liver toxicity; conditions: chickens; simultaneous administration; cited from earlier work
[11] = system: toxic side effects of antibiotics; conditions: plants; cited from earlier work
acetaminophen toxicity [12] = assay: Antidotal treatment of acetaminophen toxicity (Example 7): survival and weight restoration; type: in vivo, 129/ReJ mice
Description: as §1, §2
Eight 129/ReJ mice (The Jackson Laboratory) were wholly or partially starved for seventy-two hours to enhance their appetite. Mean weight loss during this period was 13%. […] Each mouse ingested about 0.1 gram of beta-carotene by the forty-eighth hour. […]

[13] = system: duodenal ulcers and stress ulcers; conditions: rats fed 3-, 4-diaminotoluene; cited from earlier work
[14] = acetaminophen in water, 600 mg/kg IP after hour 48 and 300 mg/kg IP at hour 60
[15] = forty-eight hours on beta-carotene diet after starvation, before acetaminophen

Molecule: CC(=O)Nc1ccc(O)cc1 [acetaminophen]
- half-life ([1]; normal dosages, normal patient): about 21/2
- half-life ([1]; severe hepatocellular injury): over 4 hours
- feeding following IP injection of a lethal dose (mice): cease to feed
- time of hepatic failure after ingestion (liver; acute acetaminophen toxicity): three to five
- ingestion at which mortality is significantly higher (liver; acute ingestion): exceeds 25 grams
- toxic dosage (liver; adult): greater than 10 grams
- toxic dosage (liver; child): ≥ 140 milligrams per kilogram
- dosage that has resulted in chronic liver disease (liver; long term dosages, as low as): three
- solubility in water [2]: soluble in water

Molecule: CC1=C(/C=C/C(C)=C/C=C/C(C)=C/C=C/C=C(C)/C=C/C=C(C)/C=C/C2=C(C)CCCC2(C)C)C(C)(C)CCC1 [beta-carotene]
- body weight after twenty-four hours (acetaminophen toxicity [3]; 0.1% aqueous acetaminophen): regained or increased their original weight
- body weight after the forty-eighth hour (acetaminophen toxicity [3]; 0.5% aqueous acetaminophen): maintenance of the mice's original weight
- animals alive at the seventy-second hour (acetaminophen toxicity [3]; [14]): all of the animals were alive
- mice alive at the one hundred fiftieth hour (acetaminophen toxicity [3]; [14]): 90%
- body weight, of original weights, at the one hundred fiftieth hour (acetaminophen toxicity [3]; acetaminophen in water, 600 and 300 mg/kg IP): 93%
- deposition in liver cells [4]: deposited in, and remains sequestered in, only the Kupffer cells of the liver
- cytochrome P450 (cytochrome P450): reduced cytochrome P450
- adverse side effects and toxicity due to aspirin (toxicity due to aspirin): reduced adverse side effects and toxicity due to aspirin
- mice alive by seventy hours after the first injection (acetaminophen toxicity [5]; about 0.1 gram beta-carotene, acetaminophen 800 mg/kg IP then 600 mg/kg): 92%
- regain of original weight (acetaminophen toxicity [5]; [15]): 86%
- mice that had died by thirty-six hours after the injection (acetaminophen toxicity [5]; twelve mice, about 0.1 gram beta-carotene, 800 mg/kg acetaminophen IP): one mouse had died
- survival rate compared with Comparative Examples 1A*-4A* (acetaminophen toxicity [6]; administration before challenge with toxic amounts of acetaminophen): increases the survival rate significantly
- mice alive seventy-two hours after injection (acetaminophen toxicity [6]; nine mice, pre-fed five months (about 7.5 grams beta-carotene)): all mice were alive
- mice alive seventy-two hours after injection (acetaminophen toxicity [6]; nineteen mice, pre-fed seven days (about 0.35 grams beta-carotene)): five of the mice were alive
- Survival 72 Hours After Ingestion (%) (acetaminophen toxicity [6]; pre-feeding 5 Months): 100%
- Survival 72 Hours After Ingestion, Survivors/Sample (acetaminophen toxicity [6]; pre-feeding 5 Months): 9/9
- Survival 72 Hours After Ingestion (%) (acetaminophen toxicity [6]; pre-feeding 5 Weeks): 65%
- Survival 72 Hours After Ingestion, Survivors/Sample (acetaminophen toxicity [6]; pre-feeding 5 Weeks): 13/20
- Survival 72 Hours After Ingestion (%) (acetaminophen toxicity [6]; pre-feeding 7 Days): 26%
- Survival 72 Hours After Ingestion, Survivors/Sample (acetaminophen toxicity [6]; pre-feeding 7 Days): 5/19
- Survival 72 Hours After Ingestion (%) (acetaminophen toxicity [6]; pre-feeding 23 Days): 100%
- Survival 72 Hours After Ingestion, Survivors/Sample (acetaminophen toxicity [6]; pre-feeding 23 Days): 20/20
- mice alive seventy-two hours after injection (acetaminophen toxicity [6]; twenty mice, pre-fed five weeks (about 1.75 grams beta-carotene)): thirteen of the mice were alive
- mice alive seventy-two hours after injection (acetaminophen toxicity [6]; twenty mice, pre-fed twenty-three days (about 1.15 grams beta-carotene)): twenty of the mice were alive
- mice alive by the seventy-second hour (acetaminophen toxicity [7]): 75%
- oxidative cleavage at the central double bond [8]: readily undergoes oxidative cleavage at the central double bond
- safe upper limit (believed) [9]: at least 1,000 mg/day
- aflatoxin-induced liver toxicity [10]: reduction of aflatoxin-induced liver toxicity
- toxic side effects of antibiotics [11]: prevent the toxic side effects of antibiotics
- mice alive seventy-two hours after injection (acetaminophen toxicity [12]; beta-carotene diet for forty-eight hours (about 0.1 gram per mouse), 800 mg/kg acetaminophen IP): 63%
- restoration of original weight (acetaminophen toxicity [12]; [15]): 98%

Molecule: vitamin A
- duodenal ulcers and stress ulcers [13]: could prevent duodenal ulcers and stress ulcers
- adverse side effects and toxicity due to aspirin (toxicity due to aspirin): reduced adverse side effects and toxicity due to aspirin
